Assay results reported in publication PMC8480901 (PLoS ONE, 2021).
Values joined by “and” are separate entries in the source; they are usually repeats but may differ in a detail not shown here. Identical values can stand only once.

Key:
[1] = tested on: IL-8–activated human neutrophils; test: Chemotaxis of IL-8–activated human neutrophils (transwell, CellTiter Glo); type: cell-based; settings: for Neutrophilic chemotaxis, RLU, Mean / Neutrophilic chemotaxis: % reduction / Neutrophilic chemotaxis, RLU, single replicates: IL-8; for Neutrophilic chemotaxis, RLU, single replicates: listed as Lef
From the text: Buffy coat (blood sample fraction comprising white blood cells and platelets) from whole blood was obtained from a healthy adult volunteer at the Croatian Institute of Transfusion Medicine (CITM; Zagreb, Croatia). The CITM ethics committee approved the blood collection process, and the volunteer provided written informed consent prior to blood collection. Neutrophils were isolated from the buffy coat, an aliquot of which was used for cell counting via hematologic analyzer (X500i; Sysmex). […] The diluted buffy coat was drawn into sterile 50-mL syringes and incubated for 30 minutes at RT. Following incubation, the upper layer of leukocyte-rich plasma (35 mL) was decanted into a new sterile 50-mL conical centrifuge tube, carefully layered onto 15 mL of Lymphoprep (Axis-Shield Diagnostics, Ltd., Dundee, UK) and centrifuged at 400×g (brake turned off) for 35 minutes at RT. The supernatant and mononuclear ring were discarded, and the pellet was resuspended in 10 mL of cold sterile MilliQ water. […] Resuspended neutrophils were counted via Sysmex X500i hematologic analyzer.
All test compounds were reconstituted in DMSO (Sigma-Aldrich Chemie GmbH) to 100-mM stock concentrations, taking into consideration and correcting for salt and purity. A 30-mM stock solution of reference compound Sch527123 (MedChemExpress, Monmouth Junction, NJ, USA) was diluted to 10 mM with DMSO.
DMSO was used as vehicle. […] The reference compound was tested at concentrations of 0.003, 0.01, 0.03, 0.1, 0.3, 1, 3, and 10 μM. All compounds were tested in triplicate, and the final DMSO concentration was 0.1% per well.
Test and reference compound working solutions were then added (20 μL/well) for a 10-fold dilution to final testing concentrations. Compounds and cells were mixed by gentle pipetting, and the plate was pre-incubated for 30 minutes at RT with gentle mixing by pipetting.
Negative control wells received 180 μL of migration medium alone. To all wells, 20 μL of compound working solutions or DMSO vehicle was added. Once pre-incubation of cells with compounds was complete, the transwell inserts were carefully placed on the receiver plate, with caution to avoid air bubble formation, which could prevent cell migration. To the upper wells, 75 μL of cell suspension (375,000 cells/well) was added, taking care not to tear the membrane with pipette tips.
After incubation, the number of cells that migrated to the lower wells was quantified by removing the Transwell insert and adding 200 μL of CellTiter Glo reagent (CellTiter-Glo Luminescent Cell Viability Assay, Promega, Madison, WI, USA) to each lower well to quantify the amount of adenosine triphosphate (ATP) present, signaling the presence of metabolically active cells. The plate was incubated for 10 minutes in the dark at RT, followed by transferring 150 μL of solution into wells of a white 96-well plate (Lumitrac 200; Greiner Bio-One International GmbH, Kremsmunster, Austria).
For the chemotaxis and cytotoxicity evaluations, average relative light unit values were calculated from all untreated vehicle samples and, for each sample, percentage of vehicle value was calculated. The tested compound was considered cytotoxic if reduction from untreated vehicle was ≥20%.

[2] = tested on: TNF-α, IL-6, IL-1β, GM-CSF, CXCL-1, CXCL-2, CCL-2 and MMP-9 in lung tissue; test: LPS-induced cytokines, chemokines and MMP-9 in mouse lung homogenates (Luminex, ELISA)
Experimental: To induce pulmonary neutrophilia, mice in the control group received intranasal (IN) 50 μL saline, and all other animals received 5 μg LPS/50 μL saline IN per mouse.
After bronchoalveolar lavage, lungs were removed, weighed, snap frozen, and stored at −80°C until analysis. To homogenize the tissue, the frozen lungs were thawed and placed in Precellys CK28 Hard Tissue tubes (BERTIN Instruments, Montigny-le-Bretonneux, France) in 1 mL PBS (Gibco, Life Technologies, Paisley, UK) supplemented with protease inhibitors (Halt™ Protease Inhibitor Cocktail [100×]; Thermo Fisher Scientific, Rockford, IL, USA). A Precellys homogenizer (BERTIN Instruments) was used, shaking at 6800 rpm for three 30-second pulses separated by 15-second pauses. After homogenization, samples were centrifuged at 18,000×g for 10 minutes at 4°C, and the supernatants were collected for analysis.
Concentrations of tumor necrosis factor (TNF)-α, IL-6, granulocyte-macrophage colony-stimulating factor (GM-CSF), chemokine (C-X-C motif) ligand (CXCL)-1, CXCL-2, and chemokine (C-C motif) ligand (CCL)-2 in mouse lung homogenates were analyzed with the Mouse Premixed Multi-Analyte Kit (R&D Systems, Minneapolis, MN, USA) per the manufacturer’s protocol and using a Luminex 200 System (Luminex Corporation, Austin, TX, USA). Cytokine and chemokine concentrations were determined from blank-corrected median fluorescence intensity of each sample via xPONENT® software (Luminex Corporation), interpolating from standard curves generated with a 5-parameter logistic curve-fit.
Mouse Total MMP (matrix metalloprotease)-9 and IL-1β/IL-1F2 DuoSet ELISA (enzyme-linked immunosorbent assay) kits (R&D Systems) were used to measure concentrations of MMP-9 and IL-1β, respectively, in lung homogenates per the manufacturer’s protocols. Absorbance at 450 nm was measured using the SpectraMax i3 (Molecular Devices, San Jose, CA, USA). Concentrations of MMP-9 and IL-1β in samples were determined by interpolation from standard curves.
Differences between treated versus vehicle groups were determined using the Mann-Whitney test and were considered statistically significant when P<0.05. Outliers in the analysis of cytokine and chemokine concentrations were identified using the Grubbs test. No criteria were set for inclusion/exclusion of animals during the experiment or data points during the analysis.

[3] = all doses (10, 30, 100 mg/kg SC)
[4] = all doses tested (10, 30, 100 mg/kg SC), vs vehicle control
[5] = lung homogenate, LPS, 10 mg/kg, individual animal, listed as Lef
[6] = lung homogenate, LPS, 10 mg/kg, mean of 8

C=C[C@]1(C)C[C@@H](OC(=O)CS[C@@H]2CC[C@@H](N)C[C@H]2O)[C@]2(C)[C@H](C)CC[C@]3(CCC(=O)[C@H]32)[C@@H](C)[C@@H]1O [Lefamulin]
IL-8–induced chemotaxis of human neutrophils ([1]; 0.03 to 30 μM): no effect
Neutrophilic chemotaxis, RLU, Mean ([1]; 0.03 µM): 133060 RLU
Neutrophilic chemotaxis: % reduction ([1]; 0.03 µM): -0.0452%
Neutrophilic chemotaxis, RLU, single replicates ([1]; 0.03 µM): 133000 RLU and 133120 RLU
Neutrophilic chemotaxis, RLU, Mean ([1]; 0.1 µM): 130347 RLU
Neutrophilic chemotaxis: % reduction ([1]; 0.1 µM): 2.26%
Neutrophilic chemotaxis, RLU, single replicates ([1]; 0.1 µM): 131200 RLU and 127720 RLU and 132120 RLU
Neutrophilic chemotaxis, RLU, Mean ([1]; 0.3 µM): 132827 RLU
Neutrophilic chemotaxis: % reduction ([1]; 0.3 µM): 0.153%
Neutrophilic chemotaxis, RLU, single replicates ([1]; 0.3 µM): 128480 RLU and 128040 RLU and 141960 RLU
Neutrophilic chemotaxis, RLU, Mean ([1]; 1 µM): 128693 RLU
Neutrophilic chemotaxis: % reduction ([1]; 1 µM): 3.66%
Neutrophilic chemotaxis, RLU, single replicates ([1]; 1 µM): 129760 RLU and 127360 RLU and 128960 RLU
Neutrophilic chemotaxis, RLU, Mean ([1]; 3 µM): 129147 RLU
Neutrophilic chemotaxis: % reduction ([1]; 3 µM): 3.27%
Neutrophilic chemotaxis, RLU, single replicates ([1]; 3 µM): 127920 RLU and 125520 RLU and 134000 RLU
Neutrophilic chemotaxis, RLU, Mean ([1]; 10 µM): 129213 RLU
Neutrophilic chemotaxis: % reduction ([1]; 10 µM): 3.22%
Neutrophilic chemotaxis, RLU, single replicates ([1]; 10 µM): 122760 RLU and 130480 RLU and 134400 RLU
Neutrophilic chemotaxis, RLU, Mean ([1]; 30 µM): 118747 RLU
Neutrophilic chemotaxis: % reduction ([1]; 30 µM): 12%
Neutrophilic chemotaxis, RLU, single replicates ([1]; 30 µM): 115000 RLU and 125400 RLU and 115840 RLU
Neutrophilic chemotaxis, RLU, Mean ([1]; 100 µM): 73307 RLU
Neutrophilic chemotaxis: % reduction ([1]; 100 µM): 51%
Neutrophilic chemotaxis, RLU, single replicates ([1]; 100 µM): 81720 RLU and 76640 RLU and 61560 RLU
levels of all cytokines and chemokines assessed, as well as of MMP-9, in lung homogenate ([2]; 10, 30, and 100 mg/kg SC, vs vehicle): significantly reduced
MMP-9 levels in lung homogenate ([2]; 30 and 100 mg/kg SC): Significant reductions
IL-1β concentrations in lung homogenate [2, 3]: dose-dependent effect
chemokines and GM-CSF in lung homogenate [2, 3]: Significant reductions
IL-6 concentrations in lung homogenate [2, 4]: significantly reduced
TNF-α concentrations in lung homogenate [2, 4]: significantly reduced
IL-1β concentrations in lung homogenate ([2]; highest dose, 100 mg/kg SC): significant inhibition
CCL2 % reduction ([2]; lung homogenate, LPS, 10 mg/kg): 93%
CXCL1 % reduction ([2]; lung homogenate, LPS, 10 mg/kg): 62%
CXCL2 % reduction ([2]; lung homogenate, LPS, 10 mg/kg): 73%
GM-CSF % reduction ([2]; lung homogenate, LPS, 10 mg/kg): 85%
IL-1β % reduction ([2]; lung homogenate, LPS, 10 mg/kg): -19%
IL-6 % reduction ([2]; lung homogenate, LPS, 10 mg/kg): 106%
MMP9 % reduction ([2]; lung homogenate, LPS, 10 mg/kg): 8%
TNFα % reduction ([2]; lung homogenate, LPS, 10 mg/kg): 79%
CCL2 [2, 5]: 1377.65 pg/mL and 537.39 pg/mL and 646.70 pg/mL and 438.83 pg/mL and 518.31 pg/mL and 1456.64 pg/mL and 908.74 pg/mL and 229.87 pg/mL
CXCL1 [2, 5]: 6971.93 pg/mL and 4329.90 pg/mL and 5523.90 pg/mL and 4582.09 pg/mL and 5582.50 pg/mL and 5633.76 pg/mL and 4136.19 pg/mL and 3104.94 pg/mL
CXCL2 [2, 5]: 5052.98 pg/mL and 3065.52 pg/mL and 3267.04 pg/mL and 2748.29 pg/mL and 3142.03 pg/mL and 3891.00 pg/mL and 3712.25 pg/mL and 1806.80 pg/mL
GM-CSF [2, 5]: 67.71 pg/mL and 29.84 pg/mL and 24.75 pg/mL and 26.44 pg/mL and 92.13 pg/mL and 45.24 pg/mL
IL-1β [2, 5]: 13048 pg/mL and 11802 pg/mL and 8955 pg/mL and 11618 pg/mL and 14924 pg/mL and 15796 pg/mL and 14205 pg/mL and 13632 pg/mL
IL-6 [2, 5]: 250.42 pg/mL and 122.57 pg/mL and 71.56 pg/mL and 75.97 pg/mL and 378.35 pg/mL and 273.00 pg/mL and 109.22 pg/mL
MMP9 [2, 5]: 2581 pg/mL and 2222 pg/mL and 2051 pg/mL and 2196 pg/mL and 2373 pg/mL and 1878 pg/mL and 2354 pg/mL and 2294 pg/mL
TNFα [2, 5]: 82.13 pg/mL and 385.92 pg/mL and 198.20 pg/mL and 183.71 pg/mL and 132.63 pg/mL and 135.37 pg/mL and 337.98 pg/mL and 306.86 pg/mL
CCL2 Mean [2, 6]: 764 pg/mL
CXCL1, Mean [2, 6]: 4983 pg/mL
CXCL2, Mean [2, 6]: 3336 pg/mL
GM-CSF Mean [2, 6]: 43 pg/mL
